{"source": "patent US8637521B2", "about": "“Substituted piperazin-2,5-diones and their use as multifunctional bioactive compounds” (priority 2006, dated 2014)", "key": {"antibodies to ovalbumin [1]": {"test_system": "antibodies to ovalbumin", "assay": "Adjuvant activity with ovalbumin immunization (Example 7)", "type": "in vivo, mice", "conditions": "Table 6", "method": "Adjuvant activity was tested on 6 groups of mice. Each group consisted of 5 animals. Three immunizations were performed as follows:\n• 1. Mouse Nos. 1 to 5—Complete Freund's adjuvant (CFA=control) • 2. Mouse Nos. 6 to 10—ovalbumin (OVA egg) 25 micrograms per animal+adjuvant 100 micrograms per animal • 3. Mouse Nos. 11 to 15—ovalbumin 25 micrograms per animal+CFA • 4. Mouse Nos. 16 to 20—ovalbumin 25 micrograms per animal • 5. Mouse Nos. 21 to 25—ovalbumin 25 micrograms per animal+adjuvant 1 microgram per animal • 6. Mouse Nos. 26 to 30—ovalbumin 25 micrograms per animal+adjuvant 10 micrograms per animal Second Immunization:\nThe same set 21 days after first immunization by injection of 12.5 micrograms of ovalbumin/mouse to mouse nos. 6 to 30.\nThe same set 35 days after first immunization by injection of 12.5 microgram of ovalbumin/mouse to mouse nos. 6 to 30.\nOn day 42, blood samples from each mouse were collected. The stimulation index of each group was compared. The stimulation index was calculated by dividing the test pooled sera dilution yielding OD=1 by the dilution of pooled sera from mice immunized without the adjuvant, yielding OD=1."}, "Anti-OVA antibody titers": {"test_system": "Anti-OVA antibody titers", "assay": "Adjuvant activity, anti-OVA antibody titers by ELISA (Example 8)", "type": "in vivo, Balb/c mice", "conditions": "for Anti-protein antibody titer (pooled sera) / Stimulation index / Anti-protein antibody titer (for individual sera): Table 7", "method": "Adjuvant activity was tested on 11 groups of Balb/c mice (obtained from Stolbovaya Breeding Station). Each group consisted of 7 animals. Three immunizations were performed as follows:\n• Group 1—ovalbumin 25 micrograms per animal (Mouse Nos. 1 to 7) • Group 2—ovalbumin 25 micrograms per animal+CFA (Complete Freund's adjuvant) (Mouse Nos. 8 to 14) • Group 3—ovalbumin 25 micrograms per animal+adjuvant of compound 33a 100 micrograms per animal (Mouse Nos. 15 to 21) • Group 4—ovalbumin 25 micrograms per animal+adjuvant of compound 33a 10 micrograms per animal (Mouse Nos. […]) • Group 5—ovalbumin 25 micrograms per animal+adjuvant of compound 33a 1 microgram per animal (Mouse Nos. […]) • Group 6—ovalbumin 25 micrograms per animal+adjuvant of compound 33b 100 micrograms per animal (No. 36 to 42) • Group 7—ovalbumin 25 micrograms per animal+adjuvant of compound 33b 10 micrograms per animal (Mouse Nos. 43 to 49) • Group 8—ovalbumin 25 micrograms per animal+adjuvant of compound 33b 1 microgram per animal (Mouse Nos. 50 to 56) • Group 9—ovalbumin 25 micrograms per animal+adjuvant of compound 17 100 micrograms per animal (Mouse Nos. 57 to 63) • Group 10—ovalbumin 25 micrograms per animal+adjuvant of compound 1710 micrograms per animal (Mouse Nos. 64 to 70) • Group 11—ovalbumin 25 micrograms per animal+adjuvant of compound 171 microgram per animal (Mouse Nos. 71 to 77) Second Immunization:\nThe same set 14 days after first immunization by injection of 12.5 micrograms of ovalbumin/mouse to mouse nos. 1 to 77.\nThe same set 28 days after first immunization by injection of 12.5 micrograms of ovalbumin/mouse to mouse nos. 1 to 77.\nOn day 35 after first immunization, blood samples from each mouse were collected.\nOVA (10 micrograms/ml) solution in 0.05 M sodium carbonate buffer (pH 9.5) was added to plate wells, 0.1 ml per well and incubated at 4° C. for 16 hours. The OVA solution was then removed and the plate was washed 4 times with PBS containing 0.05% Tween-20. Such washing was performed after each incubation stage. Serial twofold dilutions of sera (starting from 1:100 or 1:1000) were added to the wells, 0.1 ml per well and incubated at 37° C. for 1 hour followed by incubation (1 hour, 37° C.) with HRP-conjugated goat anti-mouse IgG antibodies (0.1 ml, 1 mg/ml in PBS) and then with a 0.1 mL substrate solution −0.05% H2O2 and 0.05% o-phenylene diamine in 0.05M sodium citrate buffer with a pH of 4.5. The reaction was stopped by adding 100 μl of 12.5% H2SO4. Absorbance was measured at a wavelength of 492 nm using a Multiscan Plus MKII (Flow Laboratories, Great Britain). Significant anti-protein antibody titer (for individual sera) was assessed as the serum dilution produced an absorbance value of more than 0.1 ODU and the minimum exceeds three times the control level. The antibody titer was presented and −log of dilution (FIGS. 2 and 3). The stimulation index for pooled sera was calculated by dividing the test pooled sera dilution producing OD=1 by the dilution of pooled sera from mice immunized without the adjuvant, producing OD=1. The results of the adjuvant activities of cyclo-L-Ala-L-Glu-(L-Trp-OH) (Compound 17), cyclo-L-Lys(N-acetyl-Glycosamine-N-acetyl-muramil)-L-Glu-(L-Trp-OH) (Compound 33a) and cyclo-D-Lys(N-acetyl-Glycosamine-N-acetyl-muramil)-D-Glu-(L-Trp-OH) (Compound 33b) are shown in Table 7 and the adjuvant activities of cyclo [L-Lys(Palmitoyil)-L-Glu(D-Trp-OH)] (Compound 26a) and cyclo [D-Lys(Palmitoyil)-D-Glu(D-Trp-OH)] (Compound 26b) are shown in Table 8 as well as in FIG. 4 which includes the results of the adjuvant activities of cyclo-L-Lys-L-Glu-(L-Trp-OH) (compound 19). It is noted that the peptides of compounds 26a and 26b are soluble in 0.1% NH4OH at a concentration of 1 mg per 1 to 2 ml."}, "antibodies to ovalbumin [2]": {"test_system": "antibodies to ovalbumin", "assay": "Adjuvant activity with ovalbumin immunization (Example 6)", "type": "in vivo, mice (C57B16)", "conditions": "for Stimulation index: Table 5, ovalbumin alone = 1.00", "method": "Adjuvant activity was tested on 5 groups of mice (C57B16). Each group consisted of 5 animals. Three immunizations were performed:\n• 1. Group with Complete Freund's Adjuvant (CFA) • 2. Group with ovalbumin (OVA egg) (25 micrograms/mouse) • 3. Group with CFA+ovalbumin (25 micrograms/mouse) • 4. Group with ovalbumin (25 micrograms/mouse)+peptide 1 microgram/mouse • 5. Group with ovalbumin (25 micrograms/mouse)+peptide 10 micrograms/mouse Second Immunization:\nThe same set 21 days after first immunization by injection of 12.5 micrograms of ovalbumin/mouse to groups 2-5.\nThe same set 35 days after first immunization by injection of 12.5 micrograms of ovalbumin/mouse to groups 2-5.\nOn day 42, the total blood from each mouse was collected. The blood was pooled from each group of mice. The stimulation index of each group was compared. The stimulation index was calculated as a ratio between optical density (OD=1) of diluted pools of groups 3-5 to the optical density (OD=1) of diluted pools of group 2 (control with no adjuvant)."}, "[3]": {"test_system": "CFU-S population in the bone marrow", "assay": "Spleen colony formation (CFU-S) by bone marrow cells of peptide-treated intact donor mice", "type": "in vivo, (CBA×C57 B1) F1 mice", "conditions": "Table 2, donor treated i/p", "method": "The effect of tested substances on intact bone marrow was studied in vivo. […] Two days after administration of preparation, the mice were killed. Bone marrow suspension was prepared and injected intravenously to lethally irradiated mice. The colony forming activity was evaluated at day 8. Test animals were (CBA×C57 B1) F1 mice (30 mice per trial, average from 3 tests)."}, "[4]": {"test_system": "hemopoietic precursor cells", "assay": "Exogenous spleen colonies from bone marrow irradiated ex vivo with 1 Gy", "type": "in vivo", "method": "In this study, the method of exogenous spleen colonies was applied. A suspension of intact bone marrow cells was irradiated ex vivo in the dose of 1 Gy. Different doses of Neogen or cyclic peptides were injected IP, 1M, subcutaneous or introduced per os to lethally irradiated recipients within an hour after the injection of irradiated bone marrow. Colonies were counted on day 8. All data in each group was the mean of three tests."}}, "note": "“And” between values parts separate entries of the source, which are not always exact repeats. Equal values may be shown once."}
{"smiles": "C[C@@H]1NC(=O)[C@H](CCC(=O)N[C@@H](Cc2c[nH]c3ccccc23)C(=O)O)NC1=O", "note": "[Compound 17, cyclo-L-Ala-L-Glu-(L-Trp-OH)]", "values": [{"measurement": "Stimulation index", "setting": "antibodies to ovalbumin [1]; adjuvant 1 microgram per animal", "result": 1.18}, {"measurement": "Stimulation index", "setting": "antibodies to ovalbumin [1]; adjuvant 10 micrograms per animal", "result": 1.74}, {"measurement": "Stimulation index", "setting": "antibodies to ovalbumin [1]; adjuvant 100 micrograms per animal, ovalbumin alone = 1.0", "result": 1.14}, {"measurement": "adjuvant activity (FIG. 4), doses at which active", "setting": "Anti-OVA antibody titers; FIG. 4", "result": "active at 1, 10 and 100 μg/kg"}, {"measurement": "Anti-protein antibody titer (pooled sera)", "setting": "Anti-OVA antibody titers; 1 μg per animal", "result": 4.8}, {"measurement": "Stimulation index", "setting": "Anti-OVA antibody titers; 1 μg per animal", "result": 2.6}, {"measurement": "Anti-protein antibody titer (pooled sera)", "setting": "Anti-OVA antibody titers; 10 μg per animal", "result": 4.5}, {"measurement": "Stimulation index", "setting": "Anti-OVA antibody titers; 10 μg per animal", "result": 1.9}, {"measurement": "Anti-protein antibody titer (pooled sera)", "setting": "Anti-OVA antibody titers; 100 μg per animal, no adjuvant 4.5", "result": 4.8}, {"measurement": "Stimulation index", "setting": "Anti-OVA antibody titers; 100 μg per animal, no adjuvant = 1", "result": 2.3}, {"measurement": "Anti-protein antibody titer (for individual sera)", "setting": "Anti-OVA antibody titers; OVA + adjuvant 1 μg per animal, −log of dilution", "result": "5.1 (3×) and 4.2 and 4.5 (2×) and 5.4"}, {"measurement": "Anti-protein antibody titer (for individual sera)", "setting": "Anti-OVA antibody titers; OVA + adjuvant 10 μg per animal, −log of dilution", "result": "4.8 and 4.2 and 4.1 and 4.5 (2×) and 5.4 and 3.9"}, {"measurement": "Anti-protein antibody titer (for individual sera)", "setting": "Anti-OVA antibody titers; OVA + adjuvant 100 μg per animal, titer as −log of dilution, one value per mouse", "result": "4.5 and 4.2 (3×) and 5.1 (2×) and 4.8"}]}
{"smiles": "C[C@@H]1NC(=O)[C@H](CCC(=O)N[C@@H](Cc2c[nH]c3ccccc23)C(=O)[O-])NC1=O.[Na+]", "note": "[cyclo-LAla-LGlu-(LTrp-ONa), cyclo-L-Ala-L-Glu-(L-Trp-ONa)]", "values": [{"measurement": "Stimulation index", "setting": "antibodies to ovalbumin [2]; ovalbumin + peptide 1 μg/mouse (group 4)", "result": 1.18}, {"measurement": "Stimulation index", "setting": "antibodies to ovalbumin [2]; ovalbumin + peptide 10 μg/mouse (group 5)", "result": 1.74}, {"measurement": "increase of titers of antibodies to ovalbumin", "setting": "antibodies to ovalbumin [2]; matches stimulation index 1.74 at 10 μg/mouse", "result": 74, "unit": "%"}, {"measurement": "% suppression", "setting": "[3]", "result": 0, "unit": "%"}, {"measurement": "Colony count CFU-8 - S per 10^5 cells M ± M", "setting": "[3]; control 11.2 ± 0.4, colonies day 8", "result": "11.7 ± 0.8", "unit": "per 10^5 cells"}, {"measurement": "Colony count", "setting": "[4]; 10 μg/kg IP, unirradiated 11.9 ± 0.4, 1 Gy alone 6.2 ± 0.6", "result": "8.0 ± 0.4"}, {"measurement": "% stimulation", "setting": "[4]; 10 μg/kg IP, unirradiated = 100, 1 Gy alone = 0", "result": 67.2, "unit": "%"}, {"measurement": "% stimulation", "setting": "[4]; 100 μg/kg IP", "result": 80.7, "unit": "%"}, {"measurement": "Colony count", "setting": "[4]; 100 μg/kg IP", "result": "9.6 ± 0.7"}, {"measurement": "% stimulation", "setting": "[4]; 100 μg/kg per/os", "result": 98.3, "unit": "%"}, {"measurement": "Colony count", "setting": "[4]; 100 μg/kg per/os", "result": "11.7 ± 0.6"}]}
